# US12209085B2, “RET inhibitors, pharmaceutical compositions and uses thereof” (SUNSHINE LAKE PHARMA CO., LTD., priority 2018, dated 2025)
# Assays:
# Assay type in all cases: biochemical
# Settings in all cases: HTRF method
# Ret wt = Ret wt (Homo sapiens (Human), UniProt P07949); experiment: HTRF kinase inhibition assay, Ret wt
# Excerpt: (§1) • 1. […] 1) • 18) Echo (Labcyte, 550) • 3.
# (§2) [formula] • Ratiopositive control: average of CEP-32496 readings in all positive control wells • Rationegative control: average of DMSO readings in all negative control wells • Wherein, the chemical name of CEP-32496 is: N-[3-[(6,7-dimethoxy-4-quinazolinyl)oxy]phenyl]-N′-[5-(2,2,2-trifluoro-1,1-dimethylethyl)-3-isoxazolyl]urea. • 4.3 Calculation of the IC50 and Drawing of the inhibition curve of the compound: • The IC50 (half inhibitory concentration) of the compound was obtained using the following non-linear fitting formula: Data analysis was performed using Graphpad 6.0 software. Y=Bottom+(Top−Bottom)/(1+10^((Log IC50−X)*Hill Slope)) • X: compound concentration log value Y: inhibition, % • 5.
# CCDC6-RET = CCDC6-RET (Homo sapiens (Human), UniProt P07949+Q16204); experiment: HTRF kinase inhibition assay, CCDC6-RET
# CCDC6-RET, sequence (P07949 other isoform, or with tags, fused parts or gaps): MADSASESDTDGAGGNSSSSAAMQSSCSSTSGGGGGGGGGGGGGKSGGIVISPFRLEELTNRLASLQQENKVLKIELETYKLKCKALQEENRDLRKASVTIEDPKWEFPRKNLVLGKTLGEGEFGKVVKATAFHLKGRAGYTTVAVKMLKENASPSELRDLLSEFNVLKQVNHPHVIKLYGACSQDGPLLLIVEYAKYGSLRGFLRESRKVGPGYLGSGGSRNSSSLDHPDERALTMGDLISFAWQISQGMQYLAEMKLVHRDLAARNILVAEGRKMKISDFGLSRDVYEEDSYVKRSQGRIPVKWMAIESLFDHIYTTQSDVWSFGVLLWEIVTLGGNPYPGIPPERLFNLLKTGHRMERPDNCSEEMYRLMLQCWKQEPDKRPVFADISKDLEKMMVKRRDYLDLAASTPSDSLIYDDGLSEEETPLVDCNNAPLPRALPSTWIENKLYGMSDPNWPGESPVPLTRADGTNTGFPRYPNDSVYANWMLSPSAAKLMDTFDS
# Excerpt: as §1, §2
# Ret M918T = Ret M918T (Homo sapiens (Human), UniProt P07949, M918T); experiment: HTRF kinase inhibition assay, Ret M918T
# Ret M918T, sequence (P07949 29-1114 M918T): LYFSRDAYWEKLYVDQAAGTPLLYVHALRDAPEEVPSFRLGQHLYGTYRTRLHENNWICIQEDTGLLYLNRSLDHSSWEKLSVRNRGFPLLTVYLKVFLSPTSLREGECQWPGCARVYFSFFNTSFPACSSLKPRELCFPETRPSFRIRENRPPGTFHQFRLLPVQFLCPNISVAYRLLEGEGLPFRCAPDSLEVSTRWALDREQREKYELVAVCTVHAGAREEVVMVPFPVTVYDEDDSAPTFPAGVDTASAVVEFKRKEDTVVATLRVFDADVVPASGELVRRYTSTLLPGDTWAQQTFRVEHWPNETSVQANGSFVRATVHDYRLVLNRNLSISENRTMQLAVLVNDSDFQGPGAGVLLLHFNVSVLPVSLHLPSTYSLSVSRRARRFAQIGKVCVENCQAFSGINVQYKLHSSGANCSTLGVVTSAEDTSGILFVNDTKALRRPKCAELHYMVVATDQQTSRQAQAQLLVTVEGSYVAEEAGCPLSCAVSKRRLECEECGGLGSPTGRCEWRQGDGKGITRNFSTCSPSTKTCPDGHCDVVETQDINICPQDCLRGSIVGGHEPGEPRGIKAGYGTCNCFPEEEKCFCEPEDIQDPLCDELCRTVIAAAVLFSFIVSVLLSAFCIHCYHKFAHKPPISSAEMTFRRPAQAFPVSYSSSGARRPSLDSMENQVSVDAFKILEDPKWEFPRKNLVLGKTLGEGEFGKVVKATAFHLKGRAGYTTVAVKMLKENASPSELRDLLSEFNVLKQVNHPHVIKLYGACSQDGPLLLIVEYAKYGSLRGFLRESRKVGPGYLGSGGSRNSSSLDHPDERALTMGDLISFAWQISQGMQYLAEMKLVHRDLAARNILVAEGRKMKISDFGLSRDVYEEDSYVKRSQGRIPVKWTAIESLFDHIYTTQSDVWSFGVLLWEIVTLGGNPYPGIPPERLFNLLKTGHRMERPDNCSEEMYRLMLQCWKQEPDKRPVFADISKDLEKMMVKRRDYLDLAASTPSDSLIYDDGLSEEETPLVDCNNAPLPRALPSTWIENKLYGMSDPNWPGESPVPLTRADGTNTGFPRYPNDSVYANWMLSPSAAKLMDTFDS
# Excerpt: as §1, §2
# Ret V804L = Ret V804L (Homo sapiens (Human), UniProt P07949, V804L); experiment: HTRF kinase inhibition assay, Ret V804L
# Ret V804L, sequence (P07949 29-1114 V804L): as the sequence (P07949 29-1114 M918T) above, with V776L, T890M counted along it
# Excerpt: as §1, §2
# Ret V804M = Ret V804M (Homo sapiens (Human), UniProt P07949, V804M); experiment: HTRF kinase inhibition assay, Ret V804M
# Ret V804M, sequence (P07949 29-1114 V804M): as the sequence (P07949 29-1114 M918T) above, with V776M, T890M counted along it
# Excerpt: as §1, §2
# Ret wt, sequence (P07949 29-1114): as the sequence (P07949 29-1114 M918T) above, with T890M counted along it
IC50 (Ret wt) [nM],IC50 (CCDC6-RET) [nM],IC50 (Ret M918T) [nM],IC50 (Ret V804L) [nM],IC50 (Ret V804M) [nM],SMILES
0.27,0.6,2.8,0.2,2.3,"C#Cc1cccc(C(=O)NC2(C)CCN(c3ccc(-c4cc(-c5cnn(C)c5)cn5ncc(C#N)c45)cn3)CC2)c1 [Example 4, N-(1-(5-(3-cyano-6-(1-methyl-1H-pyrazol-4-yl)pyrazolo[1,5-a]pyridin-4-yl)pyridin-2-yl)-4-methylpiperidin-4-yl)-3-ethynylbenzamide]"
0.61,0.87,0.97,0.95,5.53,"Cn1cc(-c2cc(-c3ccc(N4CCN(C(=O)C#Cc5ccccc5)CC4)nc3)c3c(C#N)cnn3c2)cn1 [Example 1, 3-cyano-6-(1-methyl-1H-pyrazol-4-yl)-4-(6-(4-(3-phenylpropioloyl)piperazin-1-yl)pyridine-3-yl)pyrazolo[1,5-a]pyridine]"
7.06,,,,198,"Cn1cc(-c2cc(-c3ccc(N4CCN(CC#Cc5ccc(C(F)(F)F)cc5)CC4)nc3)c3c(C#N)cnn3c2)cn1 [Example 246, 6-(1-methyl-1H-pyrazol-4-yl)-4-(6-(4-(3-(4-(trifluoromethyl)phenyl)prop-2-yn-1-yl)piperazine-1-yl)pyridin-3-yl)pyrazolo[1,5-a]pyridine-3-carbonitrile]"
0.25,,,,3.21,"COc1ccnc(C#CCN2CCN(c3ccc(-c4cc(-c5cnn(C)c5)cn5ncc(C#N)c45)cn3)CC2)c1 [Example 252, 4-(6-(4-(3-(4-methoxypyridin-2-yl)propan-2-ynyl-1-yl)piperazin-1-yl)pyridin-3-yl)-6-(1-methyl-1H-pyrazolin-4-yl)pyrazole[1,5-a]pyridine-3-carbonitrile]"
0.27,0.8,0.7,0.3,16.6,"C#Cc1ccc(C(=O)N2CCN(c3ccc(-c4cc(-c5cnn(C)c5)cn5ncc(C#N)c45)cn3)CC2)cc1 [Example 3, 3-cyano-4-(6-(4-(4-ethynylbenzoyl)piperazin-1-yl)pyridin-3-yl)-6-(1-methyl-1H-pyrazol-4-yl)pyrazolo[1,5-a]pyridine]"
0.39,,,,8.2,C#CC(=O)N1CCN(c2ccc(-c3cc(-c4cnn(C)c4)cn4ncc(C#N)c34)cn2)CC1 [Example 5]
0.57,,,,21,"C#Cc1cccc(CN2CCN(c3ccc(-c4cc(-c5cnn(C)c5)cn5ncc(C#N)c45)cn3)CC2)c1F [Example 224, 4-(6-(4-(3-ethynyl-2-fluorobenzyl)piperazin-1-yl)pyridin-3-yl)-6-(1-methyl-1H-pyrazol-4-yl)pyrazolo[1,5-a]pyridine-3-carbonitrile]"
3.51,,,,37.8,"COc1cc(C#CCN2CCN(c3ccc(-c4cc(-c5cnn(C)c5)cn5ncc(C#N)c45)cn3)CC2)ccn1 [Example 243, 4-(6-(4-(3-(2-methoxypyridin-4-yl)prop-2-yn-1-yl)piperazin-1-yl)pyridin-3-yl)-6-(1-methyl-1H-pyrazol-4-yl)pyrazolo[1,5-a]pyridine-3-carbonitrile]"
0.17,,,,0.74,"Cn1cc(-c2cc(-c3ccc(N4CCN(CC#Cc5ncccc5F)CC4)nc3)c3c(C#N)cnn3c2)cn1 [Example 257, 4-(6-(6-(3-(3-fluoropyridin-2-yl)prop-2-yn-1-yl)piperazin-3-yl)pyridin-3-yl)-6-(1-methyl-1H-pyrazol-4-yl)pyrazoline[1,5-a]pyridine-3-carbonitrile]"
2.41,,,,27.9,"COc1ccc(C#CCN2CCN(c3ccc(-c4cc(-c5cnn(C)c5)cn5ncc(C#N)c45)cn3)CC2)cc1 [Example 251, 4-(6-(4-(3-(4-methoxyphenyl)prop-2-yn-1-yl)piperazin-1-yl)pyridin-3-yl)-6-(1-methyl-1H-pyrazolpyridin-4-yl)pyrazolo[1,5-a]pyridine-3-carbonitrile]"
3.57,,,,18.3,"COc1cncc(C#CCN2CCN(c3ccc(-c4cc(-c5cnn(C)c5)cn5ncc(C#N)c45)cn3)CC2)c1 [Example 254, 4-(6-(4-(3-(5-methoxypyridin-3-yl)prop-2-yn-1-yl)piperazin-1-yl)pyridin-3-yl)-6-(1-methyl-1H-pyrazol-4-yl)pyrazolo[1,5-a]pyridine-3-carbonitrile]"

# Continued, molecule first:
SMILES,IC50 (Ret wt) [nM],IC50 (CCDC6-RET) [nM],IC50 (Ret M918T) [nM],IC50 (Ret V804L) [nM],IC50 (Ret V804M) [nM]
"COc1cncc(C#CCN2C3CC2CN(c2ccc(-c4cc(-c5cnn(C)c5)cn5ncc(C#N)c45)cn2)C3)c1 [Example 215, 4-(6-(6-(3-(5-methoxypyridin-3-yl)prop-2-yn-1-yl)-3,6-diazabicyclo[3.1.1]heptane-3-yl)pyridin-3-yl)-6-(1-methyl-1H-pyrazol-4-yl)pyrazolo[1,5-a]pyridin-3-carbonitrile]",0.16,0.16,0.183,0.06,0.42
"C#CCNC1(C)CCN(c2ccc(-c3cc(-c4cnn(C)c4)cn4ncc(C#N)c34)cn2)CC1 [Example 277, 6-(1-methyl-1H-pyrazol-4-yl)-4-(6-(4-methyl-4-(prop-2-yn-1-ylamino)piperidin-1-yl)pyridin-3-yl)pyrazolo[1,5-a]pyridine-3-carbonitrile]",1.38,,,,10.3
"Cn1cc(-c2cc(-c3ccc(N4CC5CC(C4)N5CC#Cc4ccc(F)nc4)nc3)c3c(C#N)cnn3c2)cn1 [Example 262, 4-[6-[6-[3-(6-fluoro-3-pyridyl)prop-2-ynyl]-3,6-diazabicyclo[3.1.1]heptan-3-yl]3-pyridyl]-6-(1-methylpyrazol-4-yl)pyrazolo[1,5-a]pyridine-3-carbonitrile]",0.2,,,,1.92
"C#Cc1ccc(C(=O)N2C3CC2CN(c2ccc(-c4cc(-c5cnn(C)c5)cn5ncc(C#N)c45)cn2)C3)cc1F [Example 232, 4-(6-(6-(4-ethynyl-3-fluorobenzoyl)-3,6-diazabicyclo[3.1.1]heptan-3-yl)pyridin-3-yl)-6-(1-methyl-1H-pyrazol-4-yl)pyrazolo[1,5-a]pyridine-3-carbonitrile]",0.37,,,,1.79
"COc1ccc(C#CCN2C3CC2CN(c2ccc(-c4cc(-c5cnn(C)c5)cn5ncc(C#N)c45)cn2)C3)cn1 [Example 194, 4-(6-(6-(3-(6-methoxypyridin-3-yl)prop-2-yn-1-yl)-3,6-diazabicyclo[3.1.1]heptane-3-yl)pyridin-3-yl)-6-(1-methyl-1H-pyrazol-4-yl)pyrazolo[1,5-a]pyridin-3-carbonitrile]",0.68,0.26,0.62,0.23,7.07
"Cn1cc(-c2cc(-c3ccc(N4CC5CC(C4)N5CC#Cc4ccncc4)nc3)c3c(C#N)cnn3c2)cn1 [Example 245, 6-(1-methyl-1H-pyrazol-4-yl)-4-(6-(6-(3-(pyridin-4-yl)propan-2-yn-1-yl)-3,6-diazabicyclo[3.1.1]heptan-3-yl)pyridin-3-yl)pyrazole[1,5-a]pyridine-3-carbonitrile]",0.65,,,,10.7
"C#CC(=O)N1C2CC1CN(c1ccc(-c3cc(-c4cnn(C)c4)cn4ncc(C#N)c34)cn1)C2 [Example 31, 6-(1-methyl-1H-pyrazol-4-yl)-4-(6-(6-propioloyl-3,6-diazabicyclo[3.1.1]heptan-3-yl)pyridin-3-yl)pyrazolo[1,5-a]pyridine-3-carbonitrile]",1.95,,,,44.3
Cn1cc(-c2cc(-c3ccc(N4CC5CC(C4)N5CC#Cc4ccccn4)nc3)c3c(C#N)cnn3c2)cn1 [Example 244],0.15,,,,0.27
"Cn1cc(-c2cc(-c3ccc(N4CC5CC(C4)N5CC#Cc4ncccc4F)nc3)c3c(C#N)cnn3c2)cn1 [Example 258, 4-(6-(6-(3-(3-fluoropyridin-2-yl)prop-2-yn-1-yl)-3,6-diazabicyclo[3.1.1]heptane-3-yl)pyridin-3-yl)-6-(1-methyl-1H-pyrazol-4-yl)pyrazoline[1,5-a]pyridin-3-carbonitrile]",0.15,,,,0.21
